The text below walks through data of the supplement of paper PMC10307832.

Holding throughout (assay): relative viability (nuclei count vs DMSO), 5 days (fraction); higher = more cells survive
Compound in experiment [1]: CCn1c(-c2nonc2N)nc2c(C#CC(C)(C)O)ncc(OC[C@H]3CCCNC3)c21 + CS(=O)(=O)N1CCN(Cc2cc3nc(-c4cccc5[nH]ncc45)nc(N4CCOCC4)c3s2)CC1 [Pictilisib] (partner 1 µM)
The method in brief:
(§1)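 Lung cancer cell lines were pin-tool dosed in 1536-well plates on the day after seeding, with either a lone drug or a fixed anchor-drug dose plus five library-drug doses (not always all listed) in √10 steps. Nuclei were counted on 4× images after 5 days. Relative viability is the ratio of treated-well to vehicle-well nuclei counts, with each value a median of duplicate plates.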

Compound in experiment [2]: CCn1c(-c2nonc2N)nc2c(C#CC(C)(C)O)ncc(OC[C@H]3CCCNC3)c21 + O=C(CCCCCCC(=O)Nc1ccccc1)NO [Vorinostat] (partner 1 µM)
The method in brief: as §1

Compound in experiment [3]: CCn1c(-c2nonc2N)nc2c(C#CC(C)(C)O)ncc(OC[C@H]3CCCNC3)c21 + CC(=O)Nc1cccc(-n2c(=O)n(C3CC3)c(=O)c3c(Nc4ccc(I)cc4F)n(C)c(=O)c(C)c32)c1 [Trametinib] (partner 0.02 µM)
The method in brief: as §1

Compound in the experiment “BAM7 + Phenformin”: CCOC1=CC=CC=C1N=NC2=C(NN(C2=O)C3=NC(=CS3)C4=CC=CC=C4)C [BAM7] + N=C(N)NC(=N)NCCc1ccccc1 [Phenformin] (partner 250 µM)
The method in brief:
as §1

PC-14: the relative viability in experiment [1] (first compound 0.01 µM) came to 0.633; in experiment [1] (first compound 0.03162 µM) it was 0.754; in experiment [1] (first compound 0.1 µM) it was 0.75; in experiment [1] (first compound 0.3162 µM), 0.72; in experiment [1] (first compound 1 µM) it was 0.564; in experiment [2] (first compound 0.01 µM), 0.68. The relative viability in experiment [2] (first compound 0.03162 µM) came out at 0.742; in experiment [2] (first compound 0.1 µM) it was 0.722; in experiment [2] (first compound 0.3162 µM), 0.556; in experiment [2] (first compound 1 µM), 0.461; in experiment [3] (first compound 0.01 µM), 0.716; in experiment [3] (first compound 0.03162 µM) it was 0.772. Besides, the relative viability was 0.613 in experiment [3] (first compound 0.1 µM); 0.446 in experiment [3] (first compound 0.3162 µM); 0.444 in experiment [3] (first compound 1 µM); 0.619 with BAM7 + Phenformin (first compound 0.5 µM); 0.558 with BAM7 + Phenformin (first compound 5 µM); 0.588 with BAM7 + Phenformin (first compound 15.81 µM). Moreover, in the experiment with BAM7 + Phenformin (first compound 50 µM), the relative viability stood at 0.591.

As for RERF-LC-KJ, the relative viability worked out at 0.578 in experiment [1] (first compound 0.01 µM); 0.566 in experiment [1] (first compound 0.03162 µM); 0.556 in experiment [1] (first compound 0.1 µM); 0.567 in experiment [1] (first compound 0.3162 µM); 0.535 in experiment [1] (first compound 1 µM); 0.665 in experiment [2] (first compound 0.01 µM). In addition, the relative viability in experiment [2] (first compound 0.03162 µM) came to 0.595; in experiment [2] (first compound 0.1 µM), 0.684; in experiment [2] (first compound 0.3162 µM) it was 0.574; in experiment [2] (first compound 1 µM), 0.628; in experiment [3] (first compound 0.01 µM) it was 0.854; in experiment [3] (first compound 0.03162 µM) it was 0.818. Further, the relative viability in experiment [3] (first compound 0.1 µM) came out at 0.842; in experiment [3] (first compound 0.3162 µM), 0.778; in experiment [3] (first compound 1 µM), 0.835; in the experiment with BAM7 + Phenformin (first compound 0.5 µM), 0.357; with BAM7 + Phenformin (first compound 5 µM) it was 0.35; with BAM7 + Phenformin (first compound 15.81 µM), 0.29. In addition, the relative viability in the experiment with BAM7 + Phenformin (first compound 50 µM) came out at 0.328.

For SK-LU-1, the relative viability in experiment [1] (first compound 0.01 µM) was 0.64; in experiment [1] (first compound 0.03162 µM) it was 0.715; in experiment [1] (first compound 0.1 µM), 0.498; in experiment [1] (first compound 0.3162 µM) it was 0.575; in experiment [1] (first compound 1 µM) it was 0.617; in experiment [2] (first compound 0.01 µM), 0.767. Moreover, the relative viability in experiment [2] (first compound 0.03162 µM) was determined as 0.781; in experiment [2] (first compound 0.1 µM), 0.78; in experiment [2] (first compound 0.3162 µM), 0.677; in experiment [2] (first compound 1 µM) it was 0.767; in experiment [3] (first compound 0.01 µM), 0.527; in experiment [3] (first compound 0.03162 µM), 0.495. In addition, the relative viability was 0.458 in experiment [3] (first compound 0.1 µM); 0.443 in experiment [3] (first compound 0.3162 µM); 0.441 in experiment [3] (first compound 1 µM); 0.556 in the experiment with BAM7 + Phenformin (first compound 0.5 µM); 0.733 in the experiment with BAM7 + Phenformin (first compound 5 µM); 0.532 with BAM7 + Phenformin (first compound 15.81 µM). Moreover, in the experiment with BAM7 + Phenformin (first compound 50 µM), the relative viability turned out to be 0.619.

Consider SK-MES-1, for which the relative viability in experiment [1] (first compound 0.01 µM) stood at 0.399; in experiment [1] (first compound 0.03162 µM) it was 0.351; in experiment [1] (first compound 0.1 µM) it was 0.363; in experiment [1] (first compound 0.3162 µM), 0.339; in experiment [1] (first compound 1 µM), 0.314; in experiment [2] (first compound 0.01 µM), 1.08. Also, the relative viability amounted to 1.1 in experiment [2] (first compound 0.03162 µM); 1.1 in experiment [2] (first compound 0.1 µM); 1.05 in experiment [2] (first compound 0.3162 µM); 1.1 in experiment [2] (first compound 1 µM); 0.61 in experiment [3] (first compound 0.01 µM); 0.52 in experiment [3] (first compound 0.03162 µM). The relative viability in experiment [3] (first compound 0.1 µM) worked out at 0.569; in experiment [3] (first compound 0.3162 µM), 0.465; in experiment [3] (first compound 1 µM), 0.503; with BAM7 + Phenformin (first compound 0.5 µM), 0.721; in the experiment with BAM7 + Phenformin (first compound 5 µM), 0.724; with BAM7 + Phenformin (first compound 15.81 µM), 0.607. Further, the relative viability with BAM7 + Phenformin (first compound 50 µM) amounted to 0.659.

SW 1573: the relative viability in experiment [1] (first compound 0.01 µM) is 0.432; in experiment [1] (first compound 0.03162 µM), 0.395; in experiment [1] (first compound 0.1 µM), 0.453; in experiment [1] (first compound 0.3162 µM), 0.447; in experiment [1] (first compound 1 µM), 0.365; in experiment [2] (first compound 0.01 µM), 0.374. Besides, the relative viability in experiment [2] (first compound 0.03162 µM) stood at 0.82; in experiment [2] (first compound 0.1 µM) it was 0.451; in experiment [2] (first compound 0.3162 µM), 0.367; in experiment [2] (first compound 1 µM) it was 0.499; in experiment [3] (first compound 0.01 µM), 0.438; in experiment [3] (first compound 0.03162 µM) it was 0.553. For the same cell line, the relative viability was determined as 0.476 in experiment [3] (first compound 0.1 µM); 0.381 in experiment [3] (first compound 0.3162 µM); 0.33 in experiment [3] (first compound 1 µM); 0.386 with BAM7 + Phenformin (first compound 0.5 µM); 0.381 with BAM7 + Phenformin (first compound 5 µM); 0.327 with BAM7 + Phenformin (first compound 15.81 µM). Also, the relative viability in the experiment with BAM7 + Phenformin (first compound 50 µM) was determined as 0.39.

As to UMC-11, the relative viability in experiment [1] (first compound 0.01 µM) amounted to 0.778; in experiment [1] (first compound 0.03162 µM), 0.681; in experiment [1] (first compound 0.1 µM), 0.771; in experiment [1] (first compound 0.3162 µM), 0.758; in experiment [1] (first compound 1 µM) it was 0.935; in experiment [2] (first compound 0.01 µM) it was 0.423. Besides, the relative viability worked out at 0.375 in experiment [2] (first compound 0.03162 µM); 0.357 in experiment [2] (first compound 0.1 µM); 0.316 in experiment [2] (first compound 0.3162 µM); 0.346 in experiment [2] (first compound 1 µM); 0.765 in experiment [3] (first compound 0.01 µM); 0.701 in experiment [3] (first compound 0.03162 µM). Besides, the relative viability in experiment [3] (first compound 0.1 µM) turned out to be 0.754; in experiment [3] (first compound 0.3162 µM), 0.754; in experiment [3] (first compound 1 µM) it was 0.618; with BAM7 + Phenformin (first compound 0.5 µM), 0.336; in the experiment with BAM7 + Phenformin (first compound 5 µM), 0.371; with BAM7 + Phenformin (first compound 15.81 µM), 0.311. The relative viability with BAM7 + Phenformin (first compound 50 µM) was found to be 0.312.
